# Marks after values point to notes of the source that are not given here.
# Legend:
# [1] = background statement, no reference given; cited from earlier work
# [2] = test system: Trichinella spiralis encysted muscle larvae; assay: In vivo therapeutic efficacy in the parenteral stage of T. spiralis infection; parameters: species or system CBi/L and CBi+ mice; conditions: for Dead larvae percentage: 15 mg MBZ/kg/day oral days 27, 28, 29 p-i, methylene blue, median (range)
# Description: Since CBi/L and CBi+ mice show significant body weight differences, as already stated, adult animals of both sexes were infected orally with an equivalent dose of 2 T. spiralis L1 larvae per g of the host’s body weight. Each animal was weighed before infection, 24–48 h before treatment, and before sacrifice. During the infection course, the general health of each mouse (overall physical condition and behavior) was monitored three times a week.
# Six mice per line and sex were randomly assigned to the non-treated control (C) or treated groups (MBZ, NP, or Comp). Seven days after the last dose, mice were sacrificed to quantify encysted muscle larvae in the tongue. The tongue was excised, weighed, and digested overnight at 37 °C in a pepsin–HCl solution. Digestion was interrupted by adding saline, and the larvae were rinsed several times with saline to remove debris. After low-speed centrifugation (250–300 g, 5 min), the supernatant was carefully removed, and the pellet containing larvae was resuspended in 2 mL of saline. Larvae were counted under an optical microscope at 40× magnification using an acrylic plate. Each formulation’s anthelmintic efficacy was assessed by its effect on the larval muscle load (relative larval load: rLL, number of L1 larvae per g fresh tissue). Also, the effect of the formulations on the encysted L1 larvae viability (dead larvae percentage: proportion of dead muscle larvae/total muscle larvae recovered from each animal) was analyzed using the methylene blue supravital staining technique, as already described.
# T. spiralis female worms = assay: In vitro parasitic assay on T. spiralis female worms; parameters: species or system Trichinella spiralis
# Description: CBi mice were orally infected with 10 L1 T. spiralis larvae per gram of body weight and sacrificed on day 6 post-infection (intestinal phase) as described previously. After euthanasia, the small intestine was excised, segmented into equal lengths, and placed in Petri dishes containing 8–12 mL of incubation medium (0.85% NaCl with 250 μg/mL gentamicin). Each segment was opened longitudinally, gently agitated in the medium, and incubated for 4 h at 37 °C in 5% CO2. Following incubation, intestinal pieces were rinsed with medium and discarded. The medium containing released parasites was collected, centrifuged at a low speed, and the pellet was resuspended in 2–3 mL of RPMI 1640 supplemented with 250 μg/mL of gentamicin and 10% fetal bovine serum. Female worms were then isolated under sterile conditions for further assays.
# They were stirred at room temperature for 24 h and then filtered through sterile ethyl cellulose 0.2 μm pore filters (Minisart®, Sartorius Stedim Biotech, Göttingen, Germany).
# The entire procedure was conducted under sterile conditions as described by Priotti et al.. Female T. spiralis worms obtained as above were incubated overnight in RPMI 1640 supplemented with 250 μg/mL of gentamicin and 10% fetal bovine serum at 37 °C in 5% CO2. […] The MBZ solution served as the positive control, and the culture medium with the solvent served as the negative control. Worms were incubated at 37 °C in a humidified 5% CO2 atmosphere for 30 h and observed under an inverted microscope at 2, 4, 7, 24, and 30 h. Viability was assessed at each time point by motility and morphology to classify worms as live or dead. The number and motility of newborn larvae were also recorded. Median worm survival was analyzed using survival curves. Experiments were performed in duplicate, with data corrected against the negative control.
# Survival curves were calculated using Kaplan and Meier’s product limit method (GraphPad Prism® 9.5; GraphPad Software, Inc., San Diego, CA, USA). The significance of the difference among survival curves was determined with the log-rank test.
# [3] = test system: Trichinella spiralis encysted muscle larvae; assay: Increasing doses of pure MBZ, therapeutic efficacy in T. spiralis-infected CBi+ mice; format: in vivo; conditions: CBi+ males and females, 30 or 45 mg of MBZ/kg, vs control mice or 15 mg of MBZ/kg
# Description: As in the experiments described in Section 2.10.2, the pure drug was administered in the parenteral stage of infection on days 27, 28, and 29 p-i. Seven days after the last dose, mice were sacrificed, and the number and viability of the tongue’s encysted muscle larvae were determined to evaluate anthelmintic efficacy.
# in vivo = assay: in vivo; parameters: species or system CBi/L and CBi+ mice; conditions: mouse, po, 15 mg/kg
# Description: Separately, 2.6 g of gelatin powder was dissolved in 10 mL of hot water (60 °C), and 100 μL of this solution was added to each tube before solidification. The mixture was then sonicated in a 60 °C water bath, and 40 mg of powdered commercial chow was added to enhance palatability and ensure complete ingestion. This procedure was developed in our lab and was published in Codina et al..
# Following the procedures described by Codina et al., three to four animals per formulation were anesthetized after the drug administration with an intraperitoneal injection of ketamine/xylazine 10:1, 5 min before blood collection. Whole blood (approximately 1.5 mL) samples were taken by cardiac puncture at 0.3, 0.6, 1, 1.2, 2, 2.5, 3, 4, 5, 7, and 24 h post-treatment. Blood was collected into heparinized vials and centrifuged at 9000 rpm for 15 min to obtain plasma, which was transferred to a plastic tube and stored at −20 °C until HPLC analysis.
# Briefly, each plasma sample (200 μL) was deproteinized by adding methanol (1 mL), frozen for 30 min at −20 °C, and centrifuged at 15,000 rpm at 4 °C for 12 min. Then, the supernatant was evaporated under vacuum, and the dried samples were stored frozen until analyzed. Samples were reconstituted in 100 μL of the mobile phase and filtered through 0.2 μm polyvinylidene fluoride (PVDF) syringe filters (Agilent, Santa Clara, CA, USA). The mobile phase consisted of 0.05 M of monobasic potassium phosphate buffer and methanol (40:60, v/v). […] Briefly, each plasma sample (200 μL) was treated to eliminate proteins by adding methanol (1 mL), frozen for 30 min at −20 °C, and centrifuged at 15,000 rpm at 4 °C for 12 min. Then, the supernatant was evaporated under a vacuum, and the dried samples were frozen until analyzed. Samples of 25 μL were injected, and the analytes were eluted (flow 1.2 mL/min) from a column Zorbax Eclipse C-18 (150 × 4.6 mm; 5 μm). The absorbance was measured at a wavelength of 247 nm. The analyte retention time was 3.8 ± 0.2 min.
# According to regulatory guidelines, the Lower Limit of Quantification (LLOQ) is defined as the lowest concentration of an analyte in a biological matrix that can be quantitatively determined with acceptable precision and accuracy. […] The LLOQ was determined based on the standard deviation of the response at the lowest concentration point, measured in triplicate, and was evaluated for both precision (% CV) and accuracy criteria. […] Consequently, only data up to 7 h were considered for pharmacokinetic analysis.
# AUCs were calculated using the trapezoidal rule. Pharmacokinetic parameters were expressed as mean ± SEM. In this section, we report data as mean ± SEM to provide a measure of the central tendency along with the precision of the estimated mean. The standard error of the mean (SEM) is particularly useful for highlighting the reliability of the sample mean as an estimate of the true population mean, which is relevant when evaluating pharmacokinetic (PK) parameters under controlled conditions.
# [4] = Particle size determination (SEM image analysis / Nano Particle Analyzer); format: physicochemical
# Description: The particle size of the NP and inclusion complexes was determined by imaging using scanning electron microscopy (Leitz AMR 1600 T [Amray, Bedford, MA, USA]), with an acceleration potential of 20 kV. Samples were sputter-coated with a gold layer to make them conductive. Then, to determine the particle size, scanning electron microscopy images were analyzed using the ImageJ 1x software, a Java-based graphic design program dedicated to image analysis, to estimate size. The particle size of nano-formulations was determined by using a Nano Particle Analyzer Horiba SZ-100 (Kyoto, Japan). Samples were diluted (1:30) in filtered distilled water before measuring.
compound,measurement,setting,value
"COC(=O)Nc1nc2ccc(C(=O)c3ccccc3)cc2[nH]1 [MBZ, Mebendazole]",Oral bioavailability,[1],approximately 20%
same,Dead larvae percentage,[2]; CBi+ female,5 (5–11) ^a %
same,Dead larvae percentage,[2]; CBi+ male,11 (7–75) ^a %
same,Dead larvae percentage,[2]; CBi/L female,15 (6–25) ^b %
same,Dead larvae percentage,[2]; CBi/L male,27 (7–75) ^b %
same,Number of muscle larvae recovered compared to control animals,"[2]; pure MBZ 15 mg/kg on days 27, 28, and 29 p-i",did not reduce the number of muscle larvae recovered
same,Survival Proportion After 30 h,"T. spiralis female worms; T. spiralis females, 30 h incubation in RPMI 1640",79.3%
same,Median Survival,"T. spiralis female worms; T. spiralis females, 30 h incubation in RPMI 1640, Kaplan–Meier",Undefined
same,Effect on mobility of T. spiralis newborn larvae,"T. spiralis female worms; larvae released by females exposed to the antiparasitic solutions, 30 h",Neither MBZ nor the formulations affected the mobility
same,Decrease in muscle rLL,[3],40%
same,AUC(0-t),"in vivo; female, CBi+",600 ± 80 ng·h/mL
same,Cmax,"in vivo; female, CBi+",200 ± 20 ng/mL
same,Tmax,"in vivo; female, CBi+",39.6 min
same,AUC(0-t),"in vivo; female, CBi/L",3900 ± 630 ng·h/mL
same,Cmax,"in vivo; female, CBi/L",1300 ± 260 ng/mL
same,Tmax,"in vivo; female, CBi/L",39.6 min
same,AUC(0-t),"in vivo; male, CBi+",400 ± 200 ng·h/mL
same,Cmax,"in vivo; male, CBi+",300 ± 110 ng/mL
same,Tmax,"in vivo; male, CBi+",39.6 min
same,AUC(0-t),"in vivo; male, CBi/L",2700 ± 820 ng·h/mL
same,Cmax,"in vivo; male, CBi/L",1300 ± 310 ng/mL
same,Tmax,"in vivo; male, CBi/L",39.6 min
same,Particle Size (mean diameter),[4],10.4 ± 6.9 µm
